Results taken from patent publication US11524955B2, “2,4-diamino-pyrimidine compounds and method for making and using the compounds” (Rigel Pharmaceuticals, Inc., priority 2016, dated 2022).
Like-named read-outs stand apart in the source and are kept apart here.

Assays:
[1] = biological target: T1, IRAK4 (Homo sapiens, UniProt Q9NWZ3); test: IRAK4 biochemical assay, ADP-Glo kinase assay; conditions: for Selectivity (TAK1/IRAK4): ratio of TAK1 and IRAK4 IC50
T1 sequence (Q9NWZ3 1-460): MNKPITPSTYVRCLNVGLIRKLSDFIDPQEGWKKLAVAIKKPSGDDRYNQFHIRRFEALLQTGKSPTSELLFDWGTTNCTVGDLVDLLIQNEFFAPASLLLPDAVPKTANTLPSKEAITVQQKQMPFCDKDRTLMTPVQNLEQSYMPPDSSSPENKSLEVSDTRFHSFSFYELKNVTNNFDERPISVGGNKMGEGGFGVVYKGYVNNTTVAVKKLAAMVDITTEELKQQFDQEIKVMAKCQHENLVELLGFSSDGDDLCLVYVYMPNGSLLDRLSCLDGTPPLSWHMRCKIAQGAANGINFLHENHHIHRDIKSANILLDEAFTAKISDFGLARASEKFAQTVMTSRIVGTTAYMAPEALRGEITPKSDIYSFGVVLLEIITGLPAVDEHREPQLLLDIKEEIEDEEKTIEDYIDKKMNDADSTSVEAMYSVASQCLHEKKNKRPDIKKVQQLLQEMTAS
Procedure: (§1) IRAK4 and TAK1 biochemical assays: kinase activity was measured by ADP-Glo kinase assay (Promega).

[2] = biological target: T2, TAK1 (Homo sapiens, UniProt O43318); test: TAK1 biochemical assay, ADP-Glo kinase assay
T2 sequence (O43318 1-303 limits assumed): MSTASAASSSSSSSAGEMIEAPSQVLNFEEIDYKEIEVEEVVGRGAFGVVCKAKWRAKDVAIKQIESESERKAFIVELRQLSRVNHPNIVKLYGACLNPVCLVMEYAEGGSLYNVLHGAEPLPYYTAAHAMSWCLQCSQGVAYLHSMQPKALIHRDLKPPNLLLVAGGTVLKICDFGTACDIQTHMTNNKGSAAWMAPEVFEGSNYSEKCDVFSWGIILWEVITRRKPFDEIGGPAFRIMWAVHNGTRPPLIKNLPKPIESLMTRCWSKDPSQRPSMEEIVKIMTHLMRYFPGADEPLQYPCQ
Procedure: as §1

[3] = test system: IL-23, THP1 cells; test: IL-23 assay, THP1 cells primed with IFNg, LPS stimulated, ELISA; assay type: cell-based; conditions: Homo sapiens, THP-1
Procedure: (§2) IL-23 assays: THP1 cells or human primary monocyte-derived dendritic cells (DC) were primed overnight with IFNg. Following one hour preincubation with compound, cells were stimulated overnight with LPS. IL-23 released into the media was quantitated by ELISA.

[4] = test system: IL-23, dendritic cells; test: IL-23 assay, human primary monocyte-derived dendritic cells, LPS stimulated, ELISA; assay type: cell-based; conditions: Dendritic cell
Procedure: as §2

[5] = test system: IL-6, HUVEC; test: IL-6 assay, HUVEC, ELISA; assay type: cell-based, human; conditions: for IC50: Homo sapiens
[6] = test system: IL-8, HUVEC; test: IL-8 assay, HUVEC, ELISA; assay type: cell-based, human; conditions: for IC50: Homo sapiens
[7] = THP1 cells, IFNy primed, LPS stimulated, 10 pt, read-out: IL23-p19 ELISA, THP1-IFNy, LPS, 10 pt
[8] = read-out: IL23 (LPS induced) IC50
[9] = LPS stimulated, 10 pt, read-out: IL23-P19, ELISA, Dendritic, LPS, 10 pt
[10] = THP cells, LPS, read-out: IL23 (THP, LPS) IC50
[11] = LPS, read-out: IL23 (Dentritic Cells, LPS) IC50
[12] = read-out: IL6 (HUVEC, IL-1β) IC50
[13] = read-out: IL6 (HUVEC, LPS) IC50
[14] = read-out: IL6 (HUVEC, TNFα) IC50
[15] = read-out: IL8 (HUVEC, IL-1β) IC50
[16] = read-out: IL8 (HUVEC, LPS) IC50
[17] = read-out: IL8 (HUVEC, TNFα) IC50

With NC(=O)[C@@H]1[C@H](Nc2nc(Nc3cccc(C(=O)N4CCCC4)c3)ncc2-c2ccoc2)[C@H]2C=C[C@@H]1C2 [Compound 7, (1S,2S,3R,4R)-3-((5-(furan-3-yl)-2-((3-(pyrrolidine-1-carbonyl)phenyl)amino)pyrimidin-4-yl)amino)bicyclo[2.2.1] hept-5-ene-2-carboxamide] the IC50 [1] was 2 nM, the IC50 [2] was 11 nM and the IC50 [3, 7] was < 100 nM. For the same compound, the IC50 [3, 8] was 40 nM and the IC50 [4, 9] was < 100 nM.

With NC(=O)[C@@H]1[C@H](Nc2nc(Nc3cccc(C(=O)N4CCCC4)c3)ncc2-c2ccccc2)[C@H]2C=C[C@@H]1C2 [Compound 8, (1S,2S,3R,4R)-3-((5-phenyl-2-((3 (pyrrolidine-1-carbonyl)phenyl)amino)pyrimidin-4-yl)amino)bicyclo[2.2.1] hept-5-ene-2-carboxamide] the IC50 [1] was 10 nM, the IC50 [2] was 166 nM and the IC50 [3, 7] was < 250 nM. The IC50 [3, 8] was 220 nM and the IC50 [4, 9] was < 1000 nM.

For NC(=O)[C@@H]1[C@H](Nc2nc(Nc3cccc(C(=O)N4CCCC4)c3)ncc2-c2ccncc2)[C@H]2C=C[C@@H]1C2 [Compound 9, (1S,2S,3R,4R)-3-((5-(pyridin-4-yl)-2-((3-(pyrrolidine-1-carbonyl)phenyl)amino)pyrimidin-4-yl)amino)bicyclo[2.2.1] hept-5-ene-2-carboxamide], the IC50 [1] was 4 nM, the “Selectivity (TAK1/IRAK4)” value [1] was 7 and the IC50 [2] was 24 nM. For the same compound, the IC50 [3, 7] was < 250 nM, the IC50 [3, 8] was 130 nM and the IC50 [4, 9] was < 250 nM.

NC(=O)[C@@H]1[C@H](Nc2nc(Nc3cccc(C(=O)N4CCCC4)c3)ncc2-c2cccc(F)c2)[C@H]2C=C[C@@H]1C2 [Compound 11, (1S,2S,3R,4R)-3-((5-(3-fluorophenyl)-2-((3-(pyrrolidine-1-carbonyl)phenyl)amino)pyrimidin-4-yl)amino)bicyclo[2.2.1] hept-5-ene-2-carboxamide] was tested, and the IC50 [1] was 6 nM, the “Selectivity (TAK1/IRAK4)” value [1] was 17 and the IC50 [2] was 106 nM. The IC50 [3, 7] was < 250 nM, the IC50 [3, 10] was 130 nM and the IC50 [3, 8] was 130 nM. The IC50 [4, 9] was < 100 nM, the IC50 [4, 11] was 70 nM and the IC50 [5, 12] was 140 nM. For the same compound, the IC50 [5, 13] was 130 nM, the IC50 [5, 14] was 1700 nM and the “Selectivity IL6 (TNFα/IL-1β)” value ([5]; ratio TNFα/IL-1β) was 12. The “Selectivity IL6 (TNFα/LPS)” value ([5]; ratio TNFα/LPS) was 13, the IC50 [6, 15] was 310 nM and the IC50 [6, 16] was 950 nM. The IC50 [6, 17] was 6000 nM, the “Selectivity IL8 (TNFα/IL-1β)” value ([6]; ratio TNFα/IL-1β) was 18 and the “Selectivity IL8 (TNFα/LPS)” value ([6]; ratio TNFα/LPS) was 6.

For NC(=O)[C@@H]1[C@H](Nc2nc(Nc3cccc(C(=O)N4CCCC4)c3)ncc2-c2ccc(F)cc2)[C@H]2C=C[C@@H]1C2 [Compound 12, (1S,2S,3R,4R)-3-((5-(4-fluorophenyl)-2-((3 (pyrrolidine-1-carbonyl)phenyl)amino)pyrimidin-4-yl)amino)bicyclo[2.2.1] hept-5-ene-2-carboxamide], the IC50 [1] was 19 nM, the IC50 [2] was 670 nM and the IC50 [3, 7] was < 1000 nM. For the same compound, the IC50 [3, 8] was 460 nM and the IC50 [4, 9] was > 1000 nM.

For N#Cc1cccc(-c2cnc(Nc3cccc(C(=O)N4CCCC4)c3)nc2N[C@H]2[C@@H](C(N)=O)[C@@H]3C=C[C@H]2C3)c1 [Compound 13, (1S,2S,3R,4R)-3-((5-(3-cyanophenyl)-2-((3-(pyrrolidine-1-carbonyl)phenyl)amino)pyrimidin-4-yl)amino)bicyclo[2.2.1] hept-5-ene-2-carboxamide], the IC50 [1] was 13 nM, the IC50 [2] was 105 nM and the IC50 [3, 7] was < 1000 nM. The IC50 [3, 8] was 280 nM and the IC50 [4, 9] was < 1000 nM.

For N#Cc1ccc(-c2cnc(Nc3cccc(C(=O)N4CCCC4)c3)nc2N[C@H]2[C@@H](C(N)=O)[C@@H]3C=C[C@H]2C3)cc1 [Compound 14, (1S,2S,3R,4R)-3-((5-(4-cyanophenyl)-2-((3-(pyrrolidine-1-carbonyl)phenyl)amino)pyrimidin-4-yl)amino)bicyclo[2.2.1] hept-5-ene-2-carboxamide], the IC50 [1] was 9 nM, the IC50 [2] was 1600 nM and the IC50 [3, 7] was < 250 nM. The IC50 [3, 8] was 190 nM and the IC50 [4, 9] was < 1000 nM.

NC(=O)[C@@H]1[C@H](Nc2nc(Nc3cccc(C(=O)N4CCCC4)c3)ncc2-c2ccnc(F)c2)[C@H]2C=C[C@@H]1C2 [Compound 16, (1S,2S,3R,4R)-3-((5-(2-fluoropyridin-4-yl)-2-((3-(pyrrolidine-1-carbonyl)phenyl)amino)pyrimidin-4-yl)amino)bicyclo[2.2.1] hept-5-ene-2-carboxamide] was tested, and the IC50 [1] was 3 nM, the IC50 [2] was 17 nM and the IC50 [3, 7] was < 100 nM. For the same compound, the IC50 [3, 10] was 100 nM, the IC50 [3, 8] was 100 nM and the IC50 [4, 9] was < 250 nM. The IC50 [4, 11] was 110 nM, the IC50 [5, 12] was 110 nM and the IC50 [5, 13] was 120 nM. It also gave an IC50 [5, 14] of 1200 nM, an IC50 [6, 15] of 250 nM and an IC50 [6, 16] of 1000 nM. For the same compound, the IC50 [6, 17] was 3000 nM.
